We go through two compounds from patent US20220251080A1, “SUBSTANTIALLY PURE VENETOCLAX AND AMORPHOUS VENETOCLAX IN A FREE DRUG PARTICULAT E FORM” (DR. REDDY'S LABORATORIES LIMITED, priority 2019, published 2022).

Data set [1] in a line: Flow property measurement of powder (bulk density, tapped density, Hausner ratio, Carr's index). The format is physicochemical. The settings on record: for Carr's index: (tapped density-bulk density)/tapped density×100; for Tapped density: after mechanical tapping; for Hausner ratio: calculated from bulk and tapped density; for Bulk density: untapped powder sample. An excerpt: (§1) As per the flow property measurement, powder obtained by reactive agglomeration has better flow indices (Carr's index and Hausner ratio) than powder obtained by solvent-antisolvent process, disclosed in example 24 of WO2017212431.
The term “bulk density” as used herein refers to the ratio of the mass to the volume (including the interparticulate void volume) of an untapped powder sample.
The term “tapped density” as used herein and it is obtained by mechanically tapping a graduated cylinder containing the sample until little further volume change is observed.
The tapping can be performed using different methods. The tapped density is calculated as mass divided by the final volume of the powder.
The term “carr's index” as used herein and it is calculated using below formula Carr Index =(tapped density-bulk density)/tapped density×100.
The term “hausner ratio” as used herein and it is calculated using below formula Hausner Ratio […]

The nature of data set [2]: Filtration characteristics (specific cake resistance). To be noted: filtration of the suspension from the process. The data set is classed as physicochemical.
Source text: as §1
The term “specific cake resistance” as used herein refers to filter cake is formed by the substances that are retained on a filter. The filter cake grows in the course of filtration, becoming thicker as particulate matter is retained. With increasing layer thickness, the flow resistance of the filter cake increases. Specific cake resistance is a measure of this resistance offered by cake towards the flow.

In the case of `CC1(C)CCC(CN2CCN(c3ccc(C(=O)NS(=O)(=O)c4ccc(NCC5CCOCC5)c([N+](=O)[O-])c4)c(Oc4cnc5[nH]ccc5c4)c3)CC2)=C(c2ccc(Cl)cc2)C1` [Amorphous venetoclax obtained by Solvent-Anti solvent Proces] [4-(4-{[2-(4-chlorophenyl)-4,4dimethylcyclohex-1-en-1-yl]methyl}piperazin-1-yl)-N-({3-nitro-4-[(tetrahydro-2H-pyran-4ylmethyl)amino]phenyl}sulfonyl)-2-(1H-pyrrolo[2,3-1)]pyridin-5-yloxy)benzamide)], in data set [1], the “Carr's index” value was 29.8, the Tapped density came to 0.289 g/mL, the Hausner ratio is 1.4 and the Bulk density was 0.203 g/mL. For the same compound, the Specific cake resistance entry in data set [2] was “Filter media clogged”.

Turning to `CC1(C)CCC(CN2CCN(c3ccc(C(=O)NS(=O)(=O)c4ccc(NCC5CCOCC5)c([N+](=O)[O-])c4)c(Oc4cnc5[nH]ccc5c4)c3)CC2)=C(c2ccc(Cl)cc2)C1` [Amorphous venetoclax obtained by reactive agglomeration proc] [4-(4-{[2-(4-chlorophenyl)-4,4dimethylcyclohex-1-en-1-yl]methyl}piperazin-1-yl)-N-({3-nitro-4-[(tetrahydro-2H-pyran-4ylmethyl)amino]phenyl}sulfonyl)-2-(1H-pyrrolo[2,3-1)]pyridin-5-yloxy)benzamide)], in data set [1], the “Carr's index” value worked out at 25.8, the Tapped density turned out to be 0.442 g/mL, the Hausner ratio is on record as 1.3 and the Bulk density came to 0.328 g/mL. Also, in data set [2], the Specific cake resistance came to 2.73E+10 m/Kg.
